Like-named read-outs stand apart in the source and are kept apart here.
Tests used:
heparanase [1] = target: T1, heparanase (Homo sapiens, UniProt Q9Y251); assay: Heparanase inhibition assay based on cleavage of fondaparinux, disaccharide assayed by colorimetry (Hammond); format: biochemical; settings: for Inhibition of heparanase: over the concentration range tested
T1 sequence (Q9Y251 158-543 limits assumed): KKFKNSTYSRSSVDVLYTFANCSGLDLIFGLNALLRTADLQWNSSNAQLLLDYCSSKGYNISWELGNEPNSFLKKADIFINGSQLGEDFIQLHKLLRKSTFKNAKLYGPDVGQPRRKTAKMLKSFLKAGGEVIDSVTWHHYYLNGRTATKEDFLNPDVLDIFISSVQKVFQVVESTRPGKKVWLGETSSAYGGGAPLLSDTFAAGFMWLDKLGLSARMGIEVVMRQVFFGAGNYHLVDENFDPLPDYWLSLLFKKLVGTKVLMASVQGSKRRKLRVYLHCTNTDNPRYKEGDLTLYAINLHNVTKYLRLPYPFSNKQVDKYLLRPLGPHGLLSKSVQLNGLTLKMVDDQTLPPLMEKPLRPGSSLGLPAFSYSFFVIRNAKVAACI
T1 sequence (Q9Y251 36-109 limits assumed): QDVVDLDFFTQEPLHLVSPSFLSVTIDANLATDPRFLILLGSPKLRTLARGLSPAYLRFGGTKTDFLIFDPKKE
From the text: To prepare 12 we adopted (Scheme 1) a classical disaccharide building-block approach (C. Tabeur et al., Oligosaccharides corresponding to the regular sequence of heparin: chemical synthesis and interaction with FGF-2. Bioorg. Med. Chem. 1999, 7, 2003-2012) based on the trichloroacetimidate glycosylation method (R. R. Schmidt, W. Kinzy, Adv. Carbohydr. Chem. Biochem. 1992, 50, 21-123). […] The hexasaccharide sequence was completed by reaction under similar conditions with the trichloroacetimidate disaccharide 8 itself classically obtained from 6. […] After saponification to remove the acetyl groups and cleave the methyl esters, preparative HPLC allowed to separate 10 from its β-anomer. […] The glycol-split derivatives were then obtained (Scheme 2). […] The inhibition of heparanase was evaluated using an assay based on the cleavage of the synthetic heparin pentasaccharide fondaparinux (Arixtra®; Aspen). Cleavage of fondaparinux by heparanase, yields a disaccharide that is assayed by colorimetry. The assay was essentially performed as described by Hammond (E. Hammond, C. P. Li, V. Ferro, Development of a colorimetric assay for heparanase activity suitable for kinetic analysis and inhibitor screening, Anal. Biochem. 396 (2010), 112-116, http://doi.10.1016/j.ab.2009.09.007.
Serial dilutions of the compounds and of the reference roneparstat were tested. IC50 values were ultimately determined using GraphPad software.

heparanase [2] = target: T1, heparanase; settings: cited from earlier work

Inhibition of heparanase (heparanase [1])	Compound	other results
hardly detectable	COC1OC(COS(=O)(=O)O)C(OC2OC(C(=O)O)C(OC3OC(COS(=O)(=O)O)C(OC4OC(C(=O)O)C(OC5OC(COS(=O)(=O)O)C(OC6OC(C(=O)O)C(OC)C(O)C6OS(=O)(=O)O)C(O)C5NC(C)=O)C(O)C4O)C(O)C3NC(C)=O)C(O)C2OS(=O)(=O)O)C(O)C1NC(C)=O (stereo not drawn) [Compound 16]	
	Roneparstat [reference compound]	IC50 (heparanase [1]): 6 ng/mL
	GlcN(Ns,6s)-GlcA(gs)-GlcN(Ns,1,6anh)	IC50 (heparanase [2]): 2000 ng/mL
hardly detectable	COC1OC(COS(=O)(=O)O)C(OC2OC(C(=O)O)C(OC3OC(COS(=O)(=O)O)C(OC4OC(C(=O)O)C(OC5OC(COS(=O)(=O)O)C(OC6OC(C(=O)O)C(OC)C(O)C6OS(=O)(=O)O)C(O)C5N)C(O)C4O)C(O)C3N)C(O)C2OS(=O)(=O)O)C(O)C1N (stereo not drawn) [Compound 12]	
hardly detectable	COC1OC(COS(=O)(=O)O)C(OC2OC(C(=O)O)C(OC3OC(COS(=O)(=O)O)C(OC4OC(C(=O)O)C(OC5OC(COS(=O)(=O)O)C(OC6OC(C(=O)O)C(OC)C(O)C6OS(=O)(=O)O)C(O)C5NS(=O)(=O)O)C(O)C4O)C(O)C3NS(=O)(=O)O)C(O)C2OS(=O)(=O)O)C(O)C1NS(=O)(=O)O (stereo not drawn) [Compound 13]	IC50 (heparanase [1]; Table 1, hexasaccharides, read-out: IC50): > 29.4 µM
